Measured values published in US20090263830A1, “VISUALIZATION AND QUANTITIATION OF CELLULAR CYTOTOXICITY USING CELL-PERMEABLE FLUOROGENIC PROTEASE SUBSTRATES AND CASPASE ACTIVITY INDICATOR MARKERS” (Oncoimmunin, Inc., priority 2002, published 2009).

B1: PE-labeled Annexin V: phycoerythrin labeled annexin V, cell surface marker of apoptosis (protein, UniProt P08758 2-320, looked up)
Annexin A5: AQVLRGTVTDFPGFDERADAETLRKAMKGLGTDEESILTLLTSRSNAQRQEISAAFKTLFGRDLLDDLKSELTGKFEKLIVALMKPSRLYDAYELKHALKGAGTNEKVLTEIIASRTPEELRAIKQVYEEEYGSSLEDDVVGDTSGYYQRMLVVLLQANRDPDAGIDEAQVEQDAQALFQAGELKWGTDEEKFITIFGTRSVSHLRKVFDKYMTISGFQIEETIDRETSGNLEQLLLAVVKSIRSIPAYLAETLYYAMKGAGTDDHTLIRVMVSRSEIDLFNIRKEFRKNFATSLYSMIKGDTSGDYKKALLLLCGEDD
modifications: phycoerythrin label
notes: phycoerythrin labeled annexin V, cell surface marker of apoptosis

Legend:
EL4 cells = assay: Flow-cytometry fluorescence cellular cytotoxicity (FCC) assay, CTL killing of peptide-pulsed target cells; format: cell-based, mouse
Jurkat cells = assay: Cellular cytotoxicity assay using various apoptosis/caspase activity markers and protease indicators; format: cell-based, human; settings: indicator used for read-out, E:T 5 to 1

Row | Molecule | % of the target cells (CTO+) positive for DEVDase activity (EL4 cells) | % Killing (Jurkat cells; co-incubation 1 hr) [%] | % Killing (Jurkat cells; co-incubation 1 hr, listed as bis-(Z-DEVDamide)-Rhodamine 110) | % Killing (Jurkat cells; co-incubation 2 hr) [%] | % Killing (Jurkat cells; co-incubation 1 hr, listed as phycoerythine (PE) labeled annexin V) [%]
1 | MT246-256: irrelevant control polyoma virus peptide middle T protein epitope (SNPTYSVM, SEQ ID NO:22) (Synthetic peptide substrate.) | around 10% |  |  |  | 
2 | Bis-(N-CBZ-aspartyl-glutamyl-valyl-aspartylamide) Rhodamine 110 [Bis-(N-CBZ-DEVD amide)R22120] |  | 48.0 | markedly lower than the other two protease indicators | 75.4 | 
3 | B1 |  | 65.6 |  |  | 65.5
